# Test results as given in patent US20230271938A1, “BENZIMIDAZOLES FOR USE IN THE TREATMENT OF CANCER AND INFLAMMATORY DISEASES” (Capella Therapeutics, Inc., priority 2015, published 2023).
# How the values were obtained:
# Format in all cases: cell-based
# [1] = tested on: H1975 human NSCLC adenocarcinoma cells (drug-resistant mutant ERBB1, T790M in-cis with L858R); test: Cell proliferation assay, H1975; conditions: for Ratio (Wild-type ERBB1/Mutant ERBB1) HEKn/H1975: GI50 ratio HEKn/H1975; for Ratio (Wild-type ERBB1/Mutant ERBB1) A431/H1975: GI50 ratio A431/H1975; for GI50: Homo sapiens, NCI-H1975, H1975 cells, 72 hrs
# Procedure: (§1) The biological activity of a test compound was determined using cell proliferation assays. The activity against wild-type ERBB 1 was determined using A431 human epidermoid carcinoma cells (ATCC) and human epidermal keratinocytes, neonatal, or HEKn cells (ATCC).
# (§2) A431 cells were grown in DMEM (Invitrogen) supplemented with 10% FBS (Lonza), 1% penicillin-streptomycin, and 2 mM glutamine (Invitrogen). HEKn cells were grown in EPILIFE® (Invitrogen) supplemented with HKGS (Invitrogen). HCC827 and H1975 were cultured in RPMI1640 supplemented with 10% FBS (Lonza), 1% penicillin-streptomycin, and 2 mM glutamine (Invitrogen). Cells were maintained and propagated at 37° C. and 5% CO2 in a humidified cell culture incubator. Aliquots of cells from early passages were preserved for liquid nitrogen storage. Frozen vials of cells were thawed at 37° C. water bath. Cells were spun to remove freezing medium. The newly revived frozen cells were adapted in culture for 10 days before used for compound testing. Cells used in the assay were less than 20 subculture passages or 3 months in culture.
# (§3) The test compounds were dissolved in dimethylsulfoxide (DMSO) and stored at -20° C. before testing. […] The cells were placed in a culture incubator overnight. Next day, test compounds in DMSO were added to the cells and placed back in the culture incubator for 72 hrs. In the meantime, the cell numbers at time zero of the compound treatment (T0) was measured by ENERCOUNT® (Codex BioSolutions). At the end of the compound treatment, the cell numbers were again measured by EnerCount as T72 values. The untreated controls (Ctrl) were cell numbers recorded from the 0.1% DMSO treatment. The percent growth inhibition by the test compound was calculated by the formula: (1- (T72-T0)/(Ctrl-T0)) x 100.
# (§4) The results are summarized in Tables 1 and 2, wherein A represents a value no greater than 500 nM, B represents a value greater than 500 nM but no greater than 1 µM, C represents a value greater than 1 µM but no greater than 5 µM, and D represents a value greater than 5 µM; and wherein A′ represents a ratio of greater than 10, B′ represents a ratio of no greater than 10 but no less than 5, C′ represents a ratio of no greater than 5 but no less than 2, and D′ represents a ratio of no greater than 2.
# [2] = tested on: HCC827 human NSCLC adenocarcinoma cells (mutant ERBB1, deletion of E746-A759 in exon 19); test: Cell proliferation assay, HCC827; conditions: for Ratio (Wild-type ERBB1/Mutant ERBB1) HEKn/HCC827: GI50 ratio HEKn/HCC827; for GI50: Homo sapiens, HCC827 cells, 72 hrs; for Ratio (Wild-type ERBB1/Mutant ERBB1) A431/HCC827: GI50 ratio A431/HCC827
# Procedure: as §1, §2, §3, §4
# [3] = tested on: human epidermal keratinocytes, neonatal, or HEKn cells (wild-type ERBB1); test: Cell proliferation assay, HEKn; conditions: Keratinocyte, 72 hrs
# Procedure: as §1, §2, §3, §4
# [4] = tested on: A431 human epidermoid carcinoma cells (wild-type ERBB1); test: Cell proliferation assay, A431; conditions: A-431, 72 hrs
# Procedure: as §1, §2, §3, §4
# [5] = numeric values, reference compounds
Compound,Ratio (Wild-type ERBB1/Mutant ERBB1) HEKn/H1975 [1],Ratio (Wild-type ERBB1/Mutant ERBB1) HEKn/HCC827 [2],"GI50 [2, 5] [nM]","GI50 [3, 5] [nM]",GI50 [4] [nM],Ratio (Wild-type ERBB1/Mutant ERBB1) A431/H1975 [1],GI50 [1] [nM],Ratio (Wild-type ERBB1/Mutant ERBB1) A431/HCC827 [2],GI50 [2] [nM],GI50 [3] [nM]
C=CC(=O)Nc1cccc(Nc2nc(Nc3ccc(N4CCN(C(C)=O)CC4)cc3OC)ncc2C(F)(F)F)c1 [CO-1686],A′ (A′ represents a ratio of greater than 10),A′ (A′ represents a ratio of greater than 10),32,2500,–,–,–,–,–,–
"C=CC(=O)N1CCCC[C@@H](n2c(NC(=O)c3ccnc(C)c3)nc3cccc(OC4CCN(CC)CC4)c32)C1 [Compound A1, (R)-N-(1-(1-Acryloylazepan-3-yl)-7-((1-ethylpiperidin-4-yl)oxy)-1H-benzo[d]imidazol-2-yl)-2-methylisonicotinamide]",A′ (A′ represents a ratio of greater than 10),A′ (A′ represents a ratio of greater than 10),–,–,< 500,A′ (A′ represents a ratio of greater than 10),< 500,A′ (A′ represents a ratio of greater than 10),< 500,1000 to 5000
"C=CC(=O)N1CCC(Oc2cccc3nc(NC(=O)c4ccnc(C)c4)n([C@@H]4CCCCN(C(=O)C=C)C4)c23)CC1 [Compound A3, (R)-N-(1-(1-acryloylazepan-3-yl)-7-((1-acryloylpiperidin-4-yl)oxy)-1H-benzo[d]imidazol-2-yl)-2-methylisonicotinamide]",A′ (A′ represents a ratio of greater than 10),A′ (A′ represents a ratio of greater than 10),–,–,> 5000,B′ (B′ represents a ratio of no greater than 10 but no less than 5),< 500,A′ (A′ represents a ratio of greater than 10),< 500,1000 to 5000
"C=CC(=O)N1CCCC[C@@H](n2c(NC(=O)c3ccnc(C)c3)nc3cc(OC(F)(F)F)cc(Cl)c32)C1 [Compound A4, (R)-N-(1-(1-Acryloylazepan-3-yl)-7-chloro-5-(trifluoromethoxy)-1H-benzo[d]imidazol-2-yl)-2-methylisonicotinamide]",C′ (C′ represents a ratio of no greater than 5 but no less than 2),A′ (A′ represents a ratio of greater than 10),–,–,1000 to 5000,C′ (C′ represents a ratio of no greater than 5 but no less than 2),< 500,A′ (A′ represents a ratio of greater than 10),< 500,1000 to 5000
"Cc1cc(C(=O)Nc2nc3cc(OC(F)(F)F)cc(Cl)c3n2[C@@H]2CCCCN(C(=O)/C=C/CN(C)C)C2)ccn1 [Compound A5, (R,E)-N-(7-Chloro-1-(1-(4-(dimethylamino)but-2-enoyl)azepan-3-yl)-5-(trifluoromethoxy)-1H-benzo[d]imidazol-2-yl)-2-methylisonicotinamide]",A′ (A′ represents a ratio of greater than 10),A′ (A′ represents a ratio of greater than 10),–,–,1000 to 5000,C′ (C′ represents a ratio of no greater than 5 but no less than 2),< 500,A′ (A′ represents a ratio of greater than 10),< 500,1000 to 5000
"C=CC(=O)N1CCCC[C@@H](n2c(NC(=O)c3ccnc(C(F)(F)F)c3)nc3ccc4c(c32)OCCO4)C1 [Compound B1-A, (R)-N-(1-(1-acryloylazepan-3-yl)-7,8-dihydro-1H-[1,4]dioxino[2′,3′:3,4]benzo[1,2-d]imidazol-2-yl)-2-(trifluoromethyl)isonicotinamide]",–,–,–,–,1000 to 5000,–,< 500,–,< 500,> 5000
"C=CC(=O)N1CCCC[C@@H](n2c(NC(=O)c3ccnc(C)c3)nc3ccc4c(c32)OCCO4)C1 [Compound C1-A, (R)-N-(1-(1-acryloylazepan-3-yl)-7,8-dihydro-1H-[1,4]dioxino[2′,3′:3,4]benzo[1,2-d]imidazol-2-yl)-2-methylisonicotinamide]",–,–,–,–,1000 to 5000,–,< 500,–,< 500,1000 to 5000
"C=CC(=O)N1CCCC[C@@H](n2c(NC(=O)c3ccnc(OC)c3)nc3ccc4c(c32)OCCO4)C1 [Compound C2-A, (R)-N-(1-(1-acryloylazepan-3-yl)-7,8-dihydro-1H-[1,4]dioxino[2′,3′:3,4]benzo[1,2-d]imidazol-2-yl)-2-methoxyisonicotinamide]",–,–,–,–,1000 to 5000,–,< 500,–,< 500,1000 to 5000
